From ChEMBL document CHEMBL5233220, “A review of currently identified small molecule modulators of microRNA function” (Eur J Med Chem, 2020)
Where “and” joins values, the source holds several entries; their conditions need not be identical. Equal entries are not always repeated. Structures can show the parent of a compound that is named as a salt.

Key:
[1] = Inhibition of pre-miR-21 (unknown origin) by FP assay
[2] = Inhibition of human topoisomerase 2
MCF7 = experiment: Inhibition of miR-122 in human MCF7 cells relative to control; format: cell-based; conditions: dose or concentration not given here
BCL1 = experiment: Inhibition of cell growth in mouse BCL1 cells; format: functional, cell-based
Protein argonaute-2 [3] = biological target: T1, Protein argonaute-2 (Homo sapiens, UniProt Q9UKV8); experiment: Inhibition of AGO2 (unknown origin)
T1 sequence (Q9UKV8 whole entry): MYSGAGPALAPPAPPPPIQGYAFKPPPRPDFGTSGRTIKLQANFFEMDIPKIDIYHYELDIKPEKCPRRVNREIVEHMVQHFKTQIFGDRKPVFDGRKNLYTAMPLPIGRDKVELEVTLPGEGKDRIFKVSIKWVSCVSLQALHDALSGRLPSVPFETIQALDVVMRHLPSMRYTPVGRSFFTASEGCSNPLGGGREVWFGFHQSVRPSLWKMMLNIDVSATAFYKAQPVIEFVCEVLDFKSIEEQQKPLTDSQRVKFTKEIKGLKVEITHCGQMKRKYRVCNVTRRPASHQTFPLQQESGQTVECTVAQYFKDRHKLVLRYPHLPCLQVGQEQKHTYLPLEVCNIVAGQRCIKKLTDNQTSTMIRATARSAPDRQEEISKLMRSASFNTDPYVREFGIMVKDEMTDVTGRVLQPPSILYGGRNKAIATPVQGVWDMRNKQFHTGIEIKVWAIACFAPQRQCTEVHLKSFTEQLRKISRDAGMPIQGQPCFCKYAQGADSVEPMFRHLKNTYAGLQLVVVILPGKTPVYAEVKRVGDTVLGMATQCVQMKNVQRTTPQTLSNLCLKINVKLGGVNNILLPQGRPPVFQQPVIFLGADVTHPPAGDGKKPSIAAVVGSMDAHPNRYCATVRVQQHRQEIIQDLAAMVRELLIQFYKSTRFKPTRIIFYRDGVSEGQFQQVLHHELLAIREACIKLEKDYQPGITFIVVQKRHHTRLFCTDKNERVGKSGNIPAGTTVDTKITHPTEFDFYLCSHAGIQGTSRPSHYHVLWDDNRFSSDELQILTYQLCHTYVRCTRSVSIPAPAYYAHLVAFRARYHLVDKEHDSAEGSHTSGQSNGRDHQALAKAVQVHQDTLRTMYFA

[4] = Inhibition of pre-miR-21 (unknown origin) at 5 uM by FP assay relative to control
[5] = Binding affinity to pre-miR-21 (unknown origin) at U bulge assessed as dissociation constant by dicer assay
[6] = Binding affinity to pre-miR-21 (unknown origin) at A bulge assessed as dissociation constant by dicer assay
[7] = Inhibition of pre-miR-21 (unknown origin)
[8] = Inhibition of miR-96 (unknown origin); set-up: species or system Homo sapiens
[9] = Binding affinity to miR-96 (unknown origin) assessed as dissociation constant; set-up: species or system Homo sapiens
[10] = Binding affinity to miR-18a (unknown origin) assessed as dissociation constant
[11] = Inhibition of miR-18a (unknown origin) […] by qRT-PCR analysis
HeLa [12] = experiment: Inhibition of miR-10b maturation in human HeLa cells at 100 uM by luciferase assay relative to control; format: cell-based
HeLa [13] = experiment: Inhibition of pre-miR-10b maturation in human HeLa cells at 100 uM by luciferase assay relative to control; format: cell-based
[14] = Binding affinity to miR-10b (unknown origin) assessed as dissociation constant
[15] = Inhibition of miR-122 (unknown origin) by luciferase assay
[16] = Inhibition of miR-122 (unknown origin) assessed as relative light unit by luciferase assay
Huh-7 = experiment: Inhibition of miR-122 in human Huh-7 cells relative to control; format: cell-based; conditions: dose or concentration not given here
[17] = Inhibition of miR-27a (unknown origin) maturation at 5 uM relative to control
[18] = Binding affinity to miR-27a (unknown origin) assessed as dissociation constant by FP assay
HeLa [19] = experiment: Inhibition of miR-96 maturation in human HeLa cells at 40 uM by luciferase assay relative to control; format: cell-based
[20] = Binding affinity to pre-miR-21 (unknown origin) assessed as melting temperature by differential scanning fluorimetry analysis
[21] = Binding affinity to pre-miR-21 (unknown origin) assessed as dissociation constant by microarray assay
[22] = Activation of miR-122 (unknown origin) by luciferase assay
[23] = Activation of miR-122 (unknown origin) assessed as relative light unit by luciferase assay; conditions: filed as activator
Protein argonaute-2 [24] = biological target: T1, Protein argonaute-2; experiment: Binding affinity to AGO2 (unknown origin) assessed as dissociation constant by RIP assay
[25] = Inhibition of pre-miR-372 (unknown origin)
[26] = Binding affinity to pre-miR-21 (unknown origin) assessed as dissociation constant
[27] = Binding affinity to pre-miR-21 (unknown origin) assessed as dissociation constant by fluorescence-based assay
[28] = Inhibition of pre-miR-373 (unknown origin) at 250 uM by FRET assay relative to control
[29] = Binding affinity to pre-miR-373 (unknown origin) assessed as dissociation constant
[30] = Inhibition of pre-miR-373 (unknown origin) by FRET assay
[31] = Inhibition of pre-miR-372 (unknown origin) by FRET assay
HeLa [32] = experiment: Inhibition of miR-21 in human HeLa cells by qRT-PCR assay relative to control; format: cell-based; conditions: dose or concentration not given here
[33] = Inhibition of miR-21 in human HeLa cells by luciferase assay; format: cell-based
HeLa [34] = experiment: Inhibition of pre-miR-21 in human HeLa cells by qRT-PCR assay relative to control; format: cell-based; conditions: dose or concentration not given here

NC(Cc1cc(O)c(O)cc1O)C(=O)O (stereo unspecified)
IC50 [1]: 7.05 µM

CCn1cc(C(=O)O)c(=O)c2cc(F)c(N3CCNCC3)nc21 [ENOXACIN]
IC50 [2]: 30 µM

O=C(c1ccccc1)c1c2c3c(cccc3c3ccccc13)C(=O)C=C2
inhibition (MCF7): 30%

O=[N+]([O-])c1ccc2nc(-c3ccccc3[N+](=O)[O-])nc(-c3ccccc3)c2c1
EC50 (BCL1): 20 µM

O=C(O)c1ccc2nc3c4c(O)ccc(O)c4c(=O)c(Cl)c-3oc2c1
IC50 [1]: 4.71 µM

NCCc1cc(O)c(O)cc1O [OXIDOPAMINE HYDROCHLORIDE]
IC50 (Protein argonaute-2 [3]): 1.61 µM

NC[C@@H]1O[C@H](O[C@H]2[C@@H](O)[C@H](O[C@@H]3[C@@H](O)[C@H](N)C[C@H](N)[C@H]3O[C@H]3O[C@H](CN)[C@@H](O)[C@H](O)[C@H]3N)O[C@@H]2CSCCNC(=O)CCCCCn2cc(Oc3ccc4c(c3)C(=O)N(O)C(=O)C4)nn2)[C@H](N)[C@@H](O)[C@@H]1O
inhibition [4]: 90%

O=C1c2c(O)ccc(O)c2C(=O)c2c(NCCNCCO)ccc(NCCNCCO)c21 [MITOXANTRONE]
Kd [5]: 0.046 µM | Kd [6]: 0.033 µM | IC50 [7]: 3 µM

CN1CCN(c2ccc(-c3ccc4nc(-c5cc(C(C)(C)C)c(OCCCC(=O)NCCCN=[N+]=[N-])c(C(C)(C)C)c5)[nH]c4c3)cc2)CC1
IC50 [8]: 0.05 µM and 0.2 µM | Kd [9]: 0.085 µM | Kd [10]: 30 µM | IC50 [11]: 10 µM

CCCN(CC(=O)N(CCC)CC(=O)N(CC(N)=O)Cc1cn(CCCNC(=O)CCCOc2c(C(C)(C)C)cc(-c3nc4cc(N5CCN(C)CC5)ccc4[nH]3)cc2C(C)(C)C)nn1)C(=O)CCCOc1cccc(-c2nc3ccc(-c4nc5ccc(N6CCN(C)CC6)cc5[nH]4)cc3[nH]2)c1
Kd [9]: 0.2 µM

[N-]=[N+]=NC[C@H]1O[C@@H](O[C@H]2[C@H](O[C@H]3O[C@H](CNC(=N)N)[C@@H](O)[C@H](O)[C@H]3NC(=N)N)[C@@H](NC(=N)N)CC[C@@H]2O)[C@H](O)[C@@H]1O[C@H]1O[C@@H](CNC(=N)N)C[C@H](O)[C@H]1NC(=N)N
inhibition (HeLa [12]): 50% | inhibition (HeLa [13]): 30% | Kd [14]: 0.417 µM

O=C(Nc1ccc2ccccc2c1)c1ccc(Cl)cc1Cl
IC50 [15]: 3 µM | Activity [16]: 7.73 RLU | inhibition (Huh-7): 48%

Cc1ccc(C(=O)Nc2ccc(S(=O)(=O)O)c3cc(S(=O)(=O)O)cc(S(=O)(=O)O)c23)cc1NC(=O)c1cccc(NC(=O)Nc2cccc(C(=O)Nc3cc(C(=O)Nc4ccc(S(=O)(=O)O)c5cc(S(=O)(=O)O)cc(S(=O)(=O)O)c45)ccc3C)c2)c1 [SURAMIN]
IC50 (Protein argonaute-2 [3]): 0.69 µM

O=S(=O)(c1ccc2c(c1)CCCN2)N1CCC[C@H]2CCCC[C@@H]21
IC50 [15]: 0.6 µM | Activity [16]: 0.6 RLU | inhibition (Huh-7): 47%

N=C(N)NCc1ccc(Oc2ccccc2)cc1
IC50 (Protein argonaute-2 [3]): > 1000 µM

CNC(=O)c1cc(Oc2ccc(NC(=O)Nc3ccc(Cl)c(C(F)(F)F)c3)c(F)c2)ccn1 [REGORAFENIB]
inhibition [17]: 25% | Kd [18]: 0.73 µM

O=[N+]([O-])c1ccc2nc(-c3ccccc3O)nc(-c3ccccc3)c2c1
EC50 (BCL1): 20 µM

CN1CCN(c2ccc3nc(-c4cc(C(C)(C)C)c(OCCCC(=O)NCCCN=[N+]=[N-])c(C(C)(C)C)c4)[nH]c3c2)CC1
inhibition (HeLa [19]): 90%

COc1ccc(NCC(O)Cn2c3ccc(Br)cc3c3cc(Br)ccc32)cc1 (stereo unspecified)
Tm [20]: -2.3 °C | Kd [21]: 0.7 µM and 0.8 µM

CN(C)CCN1C(=O)c2cccc3cc(N)cc(c23)C1=O [AMONAFIDE]
IC50 [22]: 3 µM | Activity [23]: 0.11 RLU

CC(NS(=O)(=O)c1ccc2nc(O)c(O)nc2c1)C(=O)O (stereo unspecified)
Kd (Protein argonaute-2 [24]): 126 µM

CCCN(CC(=O)N(CCC)CC(=O)N(CC(=O)NCCCNCCCNC(=O)c1csc(-c2csc(CCNC(=O)[C@@H](NC(=O)[C@@H](C)[C@H](O)[C@@H](C)NC(=O)[C@@H](NC(=O)c3nc([C@H](CC(N)=O)NC[C@H](N)C(N)=O)nc(N)c3C)[C@@H](O[C@@H]3O[C@@H](CO)[C@@H](O)[C@H](O)[C@@H]3O[C@H]3O[C@H](CO)[C@@H](O)[C@H](OC(N)=O)[C@@H]3O)c3c[nH]cn3)[C@@H](C)O)n2)n1)Cc1cn(CCCNC(=O)CCCOc2c(C(C)(C)C)cc(-c3nc4ccc(N5CCN(C)CC5)cc4[nH]3)cc2C(C)(C)C)nn1)C(=O)CCCOc1cccc(-c2nc3ccc(-c4nc5ccc(N6CCN(C)CC6)cc5[nH]4)cc3[nH]2)c1
Kd [9]: 0.064 µM

CN(c1ccccc1)C1c2ccccc2N=C(NCCCNCCCCNCCCN)C1(C)C (stereo unspecified)
IC50 [25]: 1.06 µM

COc1cccc2c1C(=O)c1c(O)c3c(c(O)c1C2=O)C[C@@](O)(C(=O)CO)C[C@@H]3O[C@H]1C[C@H](N)[C@@H](O)[C@H](C)O1 [EPIRUBICIN]
Kd [6]: 0.024 µM

NC(=O)C1=Cc2ccccc2C/C1=N/CC(=S)Nc1ccccc1
Kd [26]: 3.7 µM | Kd [27]: 3.7 µM

NC[C@@H]1O[C@H](O[C@H]2[C@@H](O)[C@H](O[C@@H]3[C@@H](O)[C@H](N)C[C@H](N)[C@H]3O[C@H]3O[C@H](CN)[C@@H](O)[C@H](O)[C@H]3N)O[C@@H]2n2cc(CCc3nc4cc(NC(=O)Nc5ccccc5)ccc4o3)nn2)[C@H](N)[C@@H](O)[C@@H]1O
inhibition [28]: 20% | Kd [29]: 0.014 µM | IC50 [30]: 0.54 µM | IC50 [31]: 4.17 µM

CN(C)CCN1C(=O)c2cccc3cccc(c23)C1=O
Activity [23]: 0.18 RLU

C#CCNC(=O)c1ccc(/N=N/c2ccccc2)cc1
inhibition (HeLa [32]): 87% | EC50 [33]: 2 µM | inhibition (HeLa [34]): 87%

O=[N+]([O-])c1ccc2nc(-c3ccccc3)nc(-c3ccccc3)c2c1
EC50 (BCL1): 20 µM

Cc1ccccc1NCC(O)Cn1c2ccc(Br)cc2c2cc(Br)ccc21 (stereo unspecified)
Tm [20]: -5.1 °C | Kd [21]: 2.3 µM

CC(=O)Nc1csc(-c2cccc(NC(=O)CCc3cn([C@H]4O[C@@H](O[C@@H]5[C@@H](O)[C@H](N)C[C@H](N)[C@H]5O[C@H]5O[C@H](CN)[C@@H](O)[C@H](O)[C@H]5N)[C@H](O)[C@@H]4O[C@H]4O[C@@H](CN)[C@@H](O)[C@H](O)[C@H]4N)nn3)c2)n1
inhibition [28]: 20% | Kd [29]: 0.014 µM | IC50 [30]: 5.13 µM | IC50 [31]: 2.43 µM

COc1cccc2c1C(=O)c1c(O)c3c(c(O)c1C2=O)C[C@@](O)(C(=O)CO)C[C@@H]3O[C@H]1C[C@H](N)[C@H](O)[C@H](C)O1 [DOXORUBICIN]
Kd [6]: 0.058 µM
